From article PMC4364341, “NBD delivery improves the disease phenotype of the golden retriever model of Duchenne muscular dystrophy” (Skeletal Muscle, 2014)

Legend:
mdx mice = conditions: cited from earlier work
From the text: […] […] Our ability to collectively achieve such a benefit in GRMD dogs, as well as in mdx diaphragm, [9, 13] and dko hearts, supports the pre-clinical efficacy of NBD. Due to interspecies differences among mice, dogs, and humans, it is difficult to say e ...

wild type and GRMD dogs = conditions: dog, in vivo
From the text: Necropsies were completed on all six of the NBD-treated GRMD dogs and two of the wild type dogs. Sections of kidney, liver, spleen, lung, heart (right and left ventricle), popliteal lymph node, adrenal gland, thyroid, duodenum, large intestine, pancreas, stomach, and cerebrum were collected and fixed in 10% buffered formalin. Tissues were sent to Histo-Scientific Research Laboratories in Frederick, MD, USA, a contract research laboratory where they were processed, embedded in paraffin, sectioned, and stained with H&E. An American College of Veterinary Pathology-certified pathologist evaluated slides.

GRMD dogs = experiment: MRI of proximal pelvic limb muscles, GRMD dogs; format: in vivo, dog; design: MRI T2 mapping value: unit not given here; conditions: 6 months, NBD 10 mg/kg IV 3x weekly for 4 months, n = 6
From the text: Studies were done on a Siemens 3 T Allegra Head-Only MRI scanner with a circular polarization (CP) head coil or Siemens 3 T Tim Trio Whole-Body MRI scanner with a 32-channel body coil at the UNC-CH Biomedical Research Imaging Center (BRIC). Dogs were anesthetized (above), placed on an MRI gantry in the sternal (prone) position with the pelvic limbs extended, and positioned in the coil centered at the midpoint of the femur. The proximal pelvic limbs from the coxofemoral joint to the stifle were imaged bilaterally. Scans were completed using a published protocol. T2-weighted image sequences without (T2w) and with fat saturation (T2fs) were acquired using a variable-flip-angle turbo spin echo (TSE) sequence. The time between the excitation pulse and the center of k-space was 400 ms. Importantly, the contrast was not determined only by the TE (400 ms), but also by the flip angle evolution scheme. Although a traditional TSE sequence would have very little signal at 400 ms, the variable flip angle sequence is similar in principle to hyper-echo. The hyper-echo reduces the specific absorption rate (SAR), while the variable flip angle sequence allows long TE times. A multi-spin-echo T2 (MSE-T2), using a 10-echo Carr-Purcell-Meiboom-Gill sequence, was acquired to calculate the T2 value map. Analysis of the images was completed in three modules: muscle segmentation, pre-processing, and biomarker analysis. As a prerequisite, we first segmented the major proximal pelvic limb muscles in the MRI images. All proximal pelvic limb muscles were segmented but only five slices at the midfemur were analyzed and averaged.
For the sake of this study, the biomarker analysis was limited to muscle volumes, T2 mapping values, and several texture analysis features, including a first-order intensity histogram texture feature (entropy) and two high order run length matrix features (short run emphasis (SRE) and run length non-uniformity (RLN)). These texture analysis features were assessed as potential markers of patchy lesions such as necrosis. Based on the mathematical model, we refer to short run emphasis as the Small Lesion Index (SLI) and non-uniformity as the Heterogeneity Index (HI). Both SLI and HI use the run-length matrix method. Compared to histogram-based biomarkers that use intensity data only, the run-length matrix method also takes into account the spatial distribution and intensity of the voxels. A gray-level ‘run’ is defined as a set of consecutive voxels of similar intensity level in a given direction within a predefined similarity range. This is run in a three-dimensional matrix and is intended to detect lumps of hyper-intensity in MRI. To determine overall muscle scores for T2 and the texture features in each group, the proportional muscle volume was considered, so as to calculate a weighted average.

[1] = dog, in vivo, iv
From the text: Having established a treatment regimen that provides efficacy of NBD in mice, we next asked whether such therapy could be applied to a larger animal model of DMD. […] In addition, normal hematology (white blood cell, red blood cell, platelet counts) and serum chemistry (ALT, AST, GGT, bilirubin, creatinine, potassium, creatine kinase) profiles were noted following a single IV injection of NBD in normal dogs (data not shown). Based on our collective data, a preclinical trial in GRMD dogs was initiated with four primary outcomes: skeletal muscle function, MRI of pelvic limb muscles, histopathologic features of skeletal muscles, and safety. Juvenile GRMD (n = 6) and wild type (n = 3) dogs at 2 months of age were treated for 4 months by IV infusions, 3× weekly, at 10 mg/Kg. Results were compared with those collected from untreated GRMD and wild type dogs through a separate, natural history study.

## TALDWSWLQTE [NBD, NBD peptide (…) fused to an Antennapedia protein transduction domain]
Mdx mice; IP 3x per week, concentrations of NBD reduced from 10 to 2 mg/kg
  Efficacy on dose reduction: efficacy was lost
Mdx mice; NBD-treated mdx mice
  Functional improvement, mdx diaphragm: 43%
Wild type and GRMD dogs
  Necropsy findings: histopathological changes related to NBD
GRMD dogs; Adductor
  MRI HI (Heterogeneity Index, run length non-uniformity): 116.2 ± 22.37
  MRI SLI (Small Lesion Index, short run emphasis): 0.72 ± 0.02
  MRI T2 mapping value: 39.52 ± 4.76
GRMD dogs; All muscles (weighted average)
  MRI HI (Heterogeneity Index, run length non-uniformity): 86.01 ± 18.28
  MRI SLI (Small Lesion Index, short run emphasis): 0.70 ± 0.04^^
  MRI T2 mapping value: 47.34 ± 3.10^^
GRMD dogs; Biceps Femoris
  MRI HI (Heterogeneity Index, run length non-uniformity): 87.50 ± 48.42
  MRI SLI (Small Lesion Index, short run emphasis): 0.68 ± 0.06^^
  MRI T2 mapping value: 40.20 ± 4.91^^
GRMD dogs; Caudal Sartorius
  MRI HI (Heterogeneity Index, run length non-uniformity): 35.21 ± 14.92
  MRI SLI (Small Lesion Index, short run emphasis): 0.83 ± 0.05
  MRI T2 mapping value: 53.87 ± 9.88
GRMD dogs; Cranial Sartorius
  MRI SLI (Small Lesion Index, short run emphasis): 0.79 ± 0.05
  MRI T2 mapping value: 49.40 ± 9.01
GRMD dogs; Gracilis
  MRI HI (Heterogeneity Index, run length non-uniformity): 58.90 ± 30.66
  MRI SLI (Small Lesion Index, short run emphasis): 0.70 ± 0.06^^
  MRI T2 mapping value: 45.91 ± 3.50
GRMD dogs; Rectus Femoris
  MRI HI (Heterogeneity Index, run length non-uniformity): 55.42 ± 21.95
  MRI SLI (Small Lesion Index, short run emphasis): 0.68 ± 0.07^^
  MRI T2 mapping value: 37.23 ± 4.72
GRMD dogs; Semimembranosus
  MRI HI (Heterogeneity Index, run length non-uniformity): 78.15 ± 33.31
  MRI SLI (Small Lesion Index, short run emphasis): 0.68 ± 0.06
  MRI T2 mapping value: 39.42 ± 4.86
GRMD dogs; Semitendinosus
  MRI HI (Heterogeneity Index, run length non-uniformity): 81.43 ± 35.00
  MRI SLI (Small Lesion Index, short run emphasis): 0.67 ± 0.08^^
  MRI T2 mapping value: 40.41 ± 4.97^^
GRMD dogs; Vastus Intermedius
  MRI HI (Heterogeneity Index, run length non-uniformity): 59.10 ± 27.19
  MRI SLI (Small Lesion Index, short run emphasis): 0.68 ± 0.09
  MRI T2 mapping value: 41.91 ± 5.91^^
GRMD dogs; Vastus Lateralis
  MRI HI (Heterogeneity Index, run length non-uniformity): 52.92 ± 27.20
  MRI SLI (Small Lesion Index, short run emphasis): 0.68 ± 0.04^^
  MRI T2 mapping value: 40.67 ± 5.84^^
GRMD dogs; Vastus Medialis
  MRI HI (Heterogeneity Index, run length non-uniformity): 52.55 ± 22.29
  MRI SLI (Small Lesion Index, short run emphasis): 0.77 ± 0.09
  MRI T2 mapping value: 42.74 ± 5.65
[1]
  Hematology and serum chemistry profiles: normal
